Laboratory results reported in US20240051965A1, “OXYGEN-CONTAINING HETEROCYCLIC COMPOUND AND USE THEREOF” (Icahn School of Medicine at Mount Sinai, priority 2022, published 2024).
pIC50: −log10 of the molar value.

system: TGF/SMAD Signaling Pathway SBE Reporter-HEK293 Cell Line; assay: Luciferase screen, TGF/SMAD Signaling Pathway SBE Reporter-HEK293 cells stimulated with TGFβ; format: cell-based; conditions: compound 4 hours before TGFβ 10 ng/mL, incubated overnight (18 hours), luminescence
Procedure: For the data in Table 1, the Bight-Glo™ Luciferase Assay System from Promega was used with TGF/SMAD Signaling Pathway SBE Reporter-HEK293 Cell Line from BPSbioscience. On day 1 SBE reporter-HEK293 cells were seeded at a density of 25,000 cells per well into a white clear-bottom 96-well microplate in 100 μL of growth medium without geneticin. The plate was incubated at 37° C. in a CO2 incubator for 24 hrs. The wells were renewed with 60 μL assay medium and treated with test compounds by adding 5 μL of compounds in medium. The concentration of test compound in medium is adjusted so that 5 μL will provide the desired molarity of the solution. After 4 hours, TGFβ was added to 10 ng/mL. The plate was incubated at 37° C. in a CO2 incubator overnight (18 hours). One hour prior to assay all medium was replaced. The luciferase assay was run using ONE-Step™ Luciferase Assay System by adding 100 μL of ONE-Step™ Luciferase reagent per well, rocking at room temperature for ˜15 to 30 minutes and measuring luminescence using a luminometer. The signals were normalized to percentage inhibition, with non-TGF treated cells as 100% inhibition, and the data were processed by Graphpad Prism.
The symbol “***” indicates IC50<100 nM, “**” indicates IC50≥100 nM but <10 μM, “*” indicates IC50≥10 μM.

**Q.** `O[C@H]1Cc2cc(-c3nc(-c4ccc(Cl)c(F)c4)no3)cnc2OC12CCC2` [Compound 4] was tested. Which pIC50 did it give?
**A.** Its pIC50 is ≤ 5.00.

**Q.** How did the pIC50 turn out when `[2H]C([2H])([2H])C1(C([2H])([2H])[2H])Oc2ncc(-c3nc(-c4ccc(Cl)cc4)no3)cc2C[C@@H]1O` [Compound 9] was run?
**A.** The pIC50 was > 7.00.

**Q.** `Cc1ccc(-c2noc(-c3cnc4c(c3)C[C@H](O)C3(CCC3)O4)n2)cc1` [Compound 5] was tested. Which pIC50 did it give?
**A.** Its pIC50 is ≤ 5.00.

**Q.** With `O[C@H]1Cc2cc(-c3nc(-c4ccc(Cl)cc4)no3)cnc2OC12CCCC2` [Compound 3] as the compound, how does the pIC50 read?
**A.** The pIC50 was ≤ 5.00.

**Q.** With `O[C@H]1Cc2cc(-c3nc(-c4ccc(Cl)cc4)no3)cnc2OC12CCC2` [Compound 1] as the compound, how does the pIC50 read?
**A.** Its pIC50 is 5.00 to 7.00.

**Q.** How did the pIC50 turn out when `O[C@@H]1Cc2cc(-c3nc(-c4ccc(Cl)cc4)no3)cnc2OC12CCC2` [Compound 2] was run?
**A.** The pIC50 was > 7.00.

**Q.** With `O[C@H]1Cc2cc(-c3noc(-c4ccc(Cl)cc4)n3)cnc2OC12CCC2` [Compound 8] as the compound, how does the pIC50 read?
**A.** The pIC50 was ≤ 5.00.

**Q.** `Cn1ccc(-c2noc(-c3cnc4c(c3)C[C@H](O)C3(CCC3)O4)n2)n1` [Compound 6] was tested. Which pIC50 did it give?
**A.** Its pIC50 is ≤ 5.00.

**Q.** With `O[C@H]1Cc2cc(-c3nnc(-c4ccc(Cl)cc4)o3)cnc2OC12CCC2` [Compound 7] as the compound, how does the pIC50 read?
**A.** Its pIC50 is 5.00 to 7.00.
